{"source": "patent US20080207605A1", "about": "“Combination therapy for the treatment of liver diseases” (priority 2007, published 2008)", "key": {"male C57B1/6 mice [1]": {"test_system": "male C57B1/6 mice", "experiment": "TNF-α model of liver injury (TNFα/D-Gln), plasma ALT activity", "type": "in vivo", "conditions": "PO by gavage 30 minutes before D-Gln/TNFα insult; blood 6 hours later; average from 4 studies", "description": "(§1) TNF-α is a cytokine that is implicated in inducing liver injury in a variety of acute and chronic liver diseases such as chronic HCV and acute liver failure. An exemplary in vivo model to test pharmacological agents against TNF-α induced injury is the TNF-α/D-Gal model of liver injury in mice. In this model, mice are treated with TNF-α/D-Gal and compound is administered to evaluate its ability to protect against liver damage. The compound is administered either before, at the time of or after the treatment with TNF-α/D-Gal, and followed for a period of approximately 6 hours. Allowing this model to persist past 6 hours is a variation used to determine the improved survival afforded by compound treatment.\n(§2) In vivo efficacy of RO-113-0830 was assessed using male C57B1/6 mice (Simonsen Labs) in two well-established models of liver damage. The mice were allowed to acclimate for at least three days.\nIn the TNF-α model of liver injury, D-Galactosamine (D-Gln) (800 mg/kg) and TNFα (20 or 40 μg/kg) were injected IP. RO-113-0830 (0.001-30 mg/kg) was administered PO by gavage 30 minutes before insult. Six hours later, animals were anesthetized with Nembutal (50 mg/kg IP), and blood was taken by cardiac puncture. Plasma ALT activity was determined using a kit from Sigma-Aldrich."}, "[2]": {"test_system": "Huh7 human hepatoma cell line (the 21-5 cell line)", "conditions": "read-out: IC50 for cytotoxicity (concentration decreasing cell viability by 50%); 72 hr; host cell rRNA levels by TaqMan RT-PCR", "source_text": "Cells were processed 72 hr later when the cells were still sub-confluent."}, "full-length HCV replicon": {"test_system": "full-length HCV replicon", "experiment": "HCV RNA replicon antiviral evaluation assay", "type": "cell-based, Hepatitis C virus", "conditions": "72 hr; HCV RNA replicon levels by TaqMan RT-PCR; read-out: EC50 (concentration inhibition virus replication by 50%)", "method": "The assay was conducted as described by Pietschmann, T. et al., supra.\nHuman interferon alpha-2b was included in each run as a positive control compound. Subconfluent cultures of the ET line were plated out into 96-well plates that were dedicated for the analysis of cell numbers (cytotoxicity) or antiviral activity and the next day drugs were added to the appropriate wells. Cells were processed 72 hr later when the cells were still sub-confluent. HCV RNA replicon levels and the toxic concentration of drug that reduces cell numbers, as indicated by host cell ribosomal RNA (rRNA) levels, were assessed by TaqMan RT-PCR. The EC50 (concentration inhibition virus replication by 50%), IC50 (concentration decreasing cell viability by 50%) and S150 (selective index: IC50/EC50) values were calculated."}, "C57/BL6 wild-type mice": {"test_system": "C57/BL6 wild-type mice", "experiment": "Bile duct ligation model of liver fibrosis", "type": "in vivo", "conditions": "10 mg/kg by gavage once a day", "description": "The bile duct ligation model is a well characterized model of liver fibrosis. Briefly, C57/BL6 wild-type mice 6 to 8 weeks of age were subjected to bile duct ligation (BDL) for 14 days: Sham-operated wild type mice were used as controls. Either RO 113-0830 or CMC (carboxymethylcellulose) were administered by gavage in a dose of 10 mg/kg body weight once a day. Hepatocyte apoptosis was quantified by the TUNEL assay and immunofluorescence for activated caspases 3/7. Liver injury was assessed by histopathology, and quantification of bile infarcts. Hepatic fibrosis was assessed by Sirius red staining and quantitative morphometry. Real-time polymerase chain reaction (PCR) was used to measure mRNA transcripts for collagen 1alpha (I) and alpha-smooth muscle actin."}, "male C57B1/6 mice [3]": {"test_system": "male C57B1/6 mice", "experiment": "TNF-α model (TNFα/D-Gln), 24 hour survival", "type": "in vivo", "conditions": "TNFα/D-Gln insult; average from 3 studies; p=0.03 vs control (27±7.3%)", "description": "as §1, §2\nTo determine a benefit on survival, TNF-α model, D-Galactosamine (D-Gln) (800 mg/kg) and TNF-α (20 or 40 μg/kg) were injected IP, and mice were allowed to survive for 24 hours post insult. All morbid mice were euthanized with 125 mg/kg of Nembutal IP. The average 24 hour survival from 3 studies was 27±7.3% and. 55±7.6% (p=0.03) in the TNFα/D-Gln control mice and RO-113-0830-treated mice, respectively."}, "male C57B1/6 mice [4]": {"test_system": "male C57B1/6 mice", "experiment": "Fas driven model of liver damage (Jo-2 antibody), plasma ALT activity", "type": "in vivo", "conditions": "10 mg/kg PO; 6 hours after Jo-2 IV; average of 2 studies; p<0.05 in each study", "description": "as §2\nIn a Fas driven model of liver damage, an activating antibody to Fas (Jo-2) was administered IV. Six hours later, animals were anesthetized with Nembutal (50 mg/kg IP), and blood was taken by cardiac puncture. Plasma ALT activity was determined using a kit from Sigma-Aldrich."}}}
{"smiles": "O=C(NO)C1(CS(=O)(=O)c2ccc(Oc3ccc(Cl)cc3)cc2)CCOCC1", "note": "[RO-113-0830]", "values": [{"measurement": "ED50 for decrease of plasma ALT activity", "setting": "male C57B1/6 mice [1]", "result": "0.26 ± 0.08", "unit": "mg/kg"}, {"measurement": "IC50", "setting": "[2]", "result": "~25", "unit": "µM"}, {"measurement": "EC50", "setting": "full-length HCV replicon", "result": 0.07, "unit": "µM"}, {"measurement": "reduction of Sirius red staining of hepatic collagen", "setting": "C57/BL6 wild-type mice; 14 days of BDL", "result": 3, "unit": "fold"}, {"measurement": "reduction in the number of bile infarcts vs vehicle treated BDL mice", "setting": "C57/BL6 wild-type mice; 14 days of BDL, histologic examination", "result": "> 70", "unit": "%"}, {"measurement": "decrease in TUNEL-positive hepatocytes vs vehicle", "setting": "C57/BL6 wild-type mice; 14 days of BDL, p<0.01", "result": 3, "unit": "fold"}, {"measurement": "decrease in caspase 3/7-positive hepatocytes vs vehicle", "setting": "C57/BL6 wild-type mice; 14 days of BDL, p<0.01", "result": 5, "unit": "fold"}, {"measurement": "reduction of hepatic alpha-smooth muscle actin mRNA vs vehicle-treated BDL animals", "setting": "C57/BL6 wild-type mice; 14 days of BDL, real-time PCR", "result": "> 60", "unit": "%"}, {"measurement": "reduction of hepatic collagen I mRNA vs vehicle-treated BDL animals", "setting": "C57/BL6 wild-type mice; 14 days of BDL, real-time PCR", "result": "> 60", "unit": "%"}, {"measurement": "overall animal survival following 14 days of BDL", "setting": "C57/BL6 wild-type mice; p<0.05", "result": "significantly enhanced"}, {"measurement": "24 hour survival", "setting": "male C57B1/6 mice [3]", "result": "55±7.6", "unit": "%"}, {"measurement": "reduction of Fas-induced elevation in plasma ALT activity", "setting": "male C57B1/6 mice [4]", "result": 50, "unit": "%"}]}
